We go through 2 compounds from patent USRE39706E1, “Crystalline form of a vitamin D analogue” (Leo Pharma A/S, priority 1993, dated 2007).

A short description of this series: Stability studies, storage at 40° C. The class given is physicochemical.

Like-named read-outs stand apart in the source and are kept apart here.

Consider `C=C1/C(=C\C=C2/CCC[C@]3(C)[C@@H]([C@H](C)/C=C/[C@@H](O)C4CC4)CC[C@@H]23)C[C@@H](O)C[C@@H]1O` [anhydrous form of calcipotriol, (1α,3β,5Z,7E,22E,24S)-24-Cyclopropyl-9,10-secochola-5,7,10(19), 22-tetraene-1,3,24-triol], for which the “degradation after 12 months storage” value is given as “more than 30%”.
As to `C=C1/C(=C\C=C2/CCC[C@]3(C)[C@@H]([C@H](C)/C=C/[C@@H](O)C4CC4)CC[C@@H]23)C[C@@H](O)C[C@@H]1O` [calcipotriol hydrate, calcipotriol, hydrate], the “degradation after 12 months storage” value (hydrate) was “no degradation”.
